Measured values from US20180230127A1 (PFIZER INC., priority 2015, published 2018).
Structures can show the parent of a compound that is named as a salt.

These molecules were tested against T1, human IRAK4 kinase domain (aa 154-460) (Homo sapiens, UniProt Q9NWZ3) (assay: IRAK4 Enzymatic DELFIA Assay). Settings: 0.6 mM ATP (KM); 114 pM IRAK4 kinase domain; 200 nM substrate; 5% DMSO.
T1 construct: human IRAK4 kinase domain (aa 154-460; GenBank ID AF445802)
T1 sequence (Q9NWZ3 154-460): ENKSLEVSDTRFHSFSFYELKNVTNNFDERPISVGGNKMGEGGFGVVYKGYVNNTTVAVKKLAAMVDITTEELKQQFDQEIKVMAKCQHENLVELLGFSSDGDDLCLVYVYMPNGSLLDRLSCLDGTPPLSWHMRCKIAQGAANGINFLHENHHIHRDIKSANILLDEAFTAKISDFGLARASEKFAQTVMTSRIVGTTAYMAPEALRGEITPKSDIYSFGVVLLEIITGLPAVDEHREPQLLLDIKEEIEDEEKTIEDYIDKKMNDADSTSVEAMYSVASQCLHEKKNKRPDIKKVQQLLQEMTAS
Assay type: biochemical
Method: IRAK4 Enzymatic DELFIA Assay.
This is an in vitro assay to measure IRAK4 enzymatic activity utilizing the DELFIA (Dissociation-Enhanced Lanthanide Fluorescent Immunoassay, Perkin-Elmer) platform, with the human IRAK4 kinase domain (aa 154-460) construct to characterize IRAK4 inhibitor and control compounds at 0.6 mM ATP (KM). The final amount of enzyme in the assay is 114 pM IRAK4 kinase domain, final concentration of substrate is 200 nM, and final concentration of DMSO is 5%.
The test compound was solubilized in DMSO to a stock concentration of 30 mM. The dose response plates were prepared with a 2 mM primary compound concentration, and then diluted in DMSO in a four-fold series for a total of 10 data points. Compounds were prepared as a 20-fold multiple of the final in-assay concentration
To begin the assay, 45 μL of reaction mixture containing 20 mM HEPES pH=7.5, 5 mM MgCl2, 0.0025% Brij-35, […], 228 pM phosphorylated recombinant human IRAK4 kinase domain (aa 154-460; GenBank ID AF445802) were aliquoted into Ultra-Clear Polypropylene, 96-well, U-Bottom Plates (Corning Life Sciences). 5 μL of test compound from the dose-response plate was added to the reaction mixture and incubated for 15 minutes at room temperature. Then 50 μL of 20 mM HEPES pH=7.5, 5 mM MgCl2, 0.0025% Brij-35, 600 μM ATP, and 400 nM ERM-biotinylated peptide (AGAGRDKYKTLRQIR) were added to start the reaction. The reaction was incubated for 90 minutes at room temperature and stopped by the addition of 25 μL 0.5M EDTA.
100 μL of the reaction mixture was transferred to a streptavidin coated detection plate (EvenCoat Streptavidin Coated Plates, 96-Well, R&D Systems) and incubated for 30 minutes at room temperature. The plates were washed 4 times with 100 μL per well of PBS containing 0.05% Tween-20. Plates were then incubated with 50 μL per well of antibody cocktail of Anti-pERM antibody (Cell Signaling Technology) diluted 1:5000, plus Anti-Rabbit IgG EuN1 at 0.242 μg/ml (Perkin-Elmer Life Sciences) in a solution of 10 mM MOPS pH=7.5, 150 mM NaCl, 0.05% Tween-20, 0.02% NaN3, 1% BSA, 0.1% Gelatin for 45 minutes. The plates were washed 4× with 100 μL per well of PBS containing 0.05% Tween-20. Then 100 μL per well of DELFIA Enhancement Solution were added to the plate and then read on an EnVision Model 2103 using a 340 nm excitation wavelength and a 665 nm emission detection.

`N#CCC(=O)N1CCC[C@@H](Oc2ccnc3cc(C(N)=O)c(OC4CCC4)cc23)C1` [Example 33, (R)-4-((1-(2-cyanoacetyl)piperidin-3-yl)oxy)-6-cyclobutoxyquinoline-7-carboxamide] and `CC(C)Oc1cc2c(O[C@@H]3CCCN(C(=O)CCC#N)C3)ccnc2cc1C(N)=O` [Example 35] are within 1.5-fold of each other in IC50: 272 nM for the first, 266 nM for the second.

Compared with `CC(C)Oc1cc2c(O[C@@H]3CCCN(C(=O)c4c[nH]cn4)C3)ccnc2cc1C(N)=O` [Example 14, 4-{[(3R)-1-(1H-imidazol-4-ylcarbonyl)piperidin-3-yl]oxy}-6-(propan-2-yloxy)quinoline-7-carboxamide formate], `CC(C)Oc1cc2c(O[C@@H]3CCCN(C(=O)CN)C3)ccnc2cc1C(N)=O` [Example 6, 4-{[(3R)-1-glycylpiperidin-3-yl]oxy}-6-(propan-2-yloxy)quinoline-7-carboxamide formate] is 2.5-fold lower in IC50: 856 nM for the first, 348 nM for the second.

First: CC(C)Oc1cc2c(OC3CCNC3=O)ccnc2cc1C(N)=O (centres unmarked) [Example 27, 4-[(2-oxopyrrolidin-3-yl)oxy]-6-(propan-2-yloxy)quinoline-7-carboxamide]
Second: CC(C)Oc1cc2c(O[C@@H]3CCNC3)ccnc2cc1C(N)=O [Example 77, 6-(propan-2-yloxy)-4-[(3R)-pyrrolidin-3-yloxy]quinoline-7-carboxamide]
The IC50 of the first is 1.9-fold lower: 642 nM for the first, 1230 nM for the second.

First: CC(C)Oc1cc2c(O[C@@H]3CCCN(C(=O)[C@H](C)O)C3)ccnc2cc1C(N)=O [Example 13, 4-({(3R)-1-[(2S)-2-hydroxypropanoyljpiperidin-3-yl}oxy)-6-(propan-2-yloxy)quinoline-7-carboxamide formate]
Second: CC(C)Oc1cc2c(O[C@@H]3CCCN(C(=O)[C@@H](N)CC#N)C3)ccnc2cc1C(N)=O [Example 46, 4-({(3R)-1-[(2S)-2-amino-3-cyanopropanoyl]piperidin-3-yl}oxy)-6-(propan-2-yloxy)quinoline-7-carboxamide trifluoroacetate]
The IC50 of the first is 7.7-fold higher: 751 nM for the first, 97 nM for the second.

`CC(C)Oc1cc2c(OC3CCCN(C)C3)ccnc2cc1C(N)=O` (centres unmarked) [Example 71, 4-[(1-methylpiperidin-3-yl)oxyl]-6-(propan-2-yloxy)quinoline-7-carboxamide] and `CC(C)Oc1cc2c(O[C@@H]3CC[C@H](C)NC3)ccnc2cc1C(N)=O` [Example 59, 4-{[(3R,6S)-6-methylpiperidin-3-yl]oxy}-6-(propan-2-yloxy)quinoline-7-carboxamide] are within 1.5-fold of each other in IC50: 1200 nM for the first, 919 nM for the second.

Compared with `CC(C)Oc1cc2c(O[C@H]3CCCNC3)nccc2cc1C(N)=O` [Example 75, 1-[(3S)-piperidin-3-yloxy]-7-(propan-2-yloxy)isoquinoline-6-carboxamide], `CC(C)Oc1cc2c(O[C@@H]3CCCNC3)ncc(Cl)c2cc1C(N)=O` [Example 55, 4-chloro-1-[(3R)-piperidin-3-yloxy]-7-(propan-2-yloxy)isoquinoline-6-carboxamide hydrochloride] is 14-fold lower in IC50: 3080 nM for the first, 221 nM for the second. The second is the more potent here.

Going from `CC(C)Oc1cc2c(O[C@@H]3CCN(C(=O)CC#N)C3)nccc2cc1C(N)=O` [Example 2, 1-{[(3R)-1-(cyanoacetyl)pyrrolidin-3-yl]oxy}-7-(propan-2-yloxy)isoquinoline-6-carboxamide formate] to `CC(C)Oc1cc2c(O[C@@H]3CCCN(C(=O)CC#N)C3)ncc(Cl)c2cc1C(N)=O` [Example 37, 4-chloro-1-{[(3R)-1-(cyanoacetyl)piperidin-3-yl]oxy}-7-(propan-2-yloxy)isoquinoline-6-carboxamide], the IC50 falls from 66 nM to 40 nM (1.6-fold).

Compared with `CC(C)Oc1cc2c(O[C@H]3CNCC[C@@H]3C)ccnc2cc1C(N)=O` [Example 78, 4-{[(3R,4S)-4-methylpiperidin-3-yl]oxy}-6-(propan-2-yloxy)quinoline-7-carboxamide], `CCOc1cc2c(O[C@@H]3CCCNC3)ccnc2cc1C(N)=O` [Example 65, (R)-6-ethoxy-4-(piperidin-3-yloxy)quinoline-7-carboxamide hydrochloride] is 7.3-fold lower in IC50: 3040 nM for the first, 419 nM for the second.

`NC(=O)c1cc2nccc(O[C@@H]3CCCNC3)c2cc1OC1CCC1` [Example 23, 6-(cyclobutyloxy)-4-[(3R)-piperidin-3-yloxy]quinoline-7-carboxamide] gave an IC50 of 151 nM.
